Activity calls are given as the source filed them. No cut-off for these calls is given here. Where only a bound is given, the exact number is not on record here.

For experiment [1], the target named is T1, Cathepsin K (Homo sapiens) (UniProt P43235).
T1 sequence (whole entry): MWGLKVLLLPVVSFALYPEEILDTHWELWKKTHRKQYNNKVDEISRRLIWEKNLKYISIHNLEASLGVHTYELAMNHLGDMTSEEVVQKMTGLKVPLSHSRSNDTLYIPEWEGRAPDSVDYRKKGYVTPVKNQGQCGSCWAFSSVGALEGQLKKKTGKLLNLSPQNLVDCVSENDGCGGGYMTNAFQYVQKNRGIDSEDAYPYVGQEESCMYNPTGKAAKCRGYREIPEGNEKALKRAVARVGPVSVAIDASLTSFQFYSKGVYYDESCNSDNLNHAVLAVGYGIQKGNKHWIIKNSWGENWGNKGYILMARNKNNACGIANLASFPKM
As to the kind of experiment: Inhibition of Cathepsin K (unknown origin) assessed as inhibition of AFC release at 10 uM using sequence LR labelled with AFC as substrate by fluorescence based analysis.

The target in experiment [2] is T1, Cathepsin K (Homo sapiens). As to the kind of experiment: Inhibition of Cathepsin K (unknown origin) assessed as inhibition of AFC release at 1 uM using sequence LR labelled with AFC as substrate by fluorescence based analysis.
The next experiment addresses Cathepsin B (Homo sapiens, UniProt P07858). As to the kind of experiment: Inhibition of Cathepsin B (unknown origin) assessed as inhibition of AFC release using sequence RR labelled with AFC as substrate by fluorescence based analysis.
Another experiment has as its target T2, Cathepsin K (Homo sapiens, UniProt P43235).
T2 sequence (P43235 whole entry): T1 sequence (whole entry)
Kind of experiment: Inhibition of Cathepsin K (unknown origin) assessed as inhibition of AFC release using sequence LR labelled with AFC as substrate by fluorescence based analysis.

The next experiment deals with Cathepsin S (Homo sapiens, UniProt P25774). As to the kind of experiment: Inhibition of Cathepsin S (unknown origin) assessed as inhibition of AFC release using sequence VVR labelled with AFC as substrate by fluorescence based analysis.
The target of experiment [3] is T1, Cathepsin K (Homo sapiens). Kind of experiment: Reversible inhibition of Cathepsin K (unknown origin) assessed as inhibition of AFC release using sequence LR labelled with AFC as substrate preincubated with enzyme for 10 to 60 mins followed by substrate addition by fluorescence based analysis.
In experiment [4] the target is Cathepsin (S and K) (Homo sapiens) (UniProt P25774+P43235). As to the kind of experiment: Selectivity index, ratio of IC50 for Cathepsin S (unknown origin) to IC50 for Cathepsin K (unknown origin) by fluorescence based analysis. It is filed as protein assay.
Experiment [5] deals with Cathepsin (B and K) (Homo sapiens) (UniProt P43235+P07858). As to the kind of experiment: Selectivity index, ratio of IC50 for Cathepsin B (unknown origin) to IC50 for Cathepsin K (unknown origin) by fluorescence based analysis. It is filed as protein assay.

Chain of Cathepsin S (P25774 whole entry): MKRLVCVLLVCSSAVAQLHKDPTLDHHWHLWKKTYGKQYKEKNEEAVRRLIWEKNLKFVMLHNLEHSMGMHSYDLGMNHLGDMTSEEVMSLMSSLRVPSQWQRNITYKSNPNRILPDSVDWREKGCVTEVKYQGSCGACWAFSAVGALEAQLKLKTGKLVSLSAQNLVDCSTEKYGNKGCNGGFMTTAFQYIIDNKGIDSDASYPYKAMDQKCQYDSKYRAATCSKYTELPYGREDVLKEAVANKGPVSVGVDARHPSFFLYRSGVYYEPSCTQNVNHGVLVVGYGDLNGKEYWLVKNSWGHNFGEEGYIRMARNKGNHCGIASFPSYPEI
Chain of Cathepsin (S and K) (Homo sapiens) (P25774 whole entry, looked up, one chain of several): as the sequence (P25774 whole entry) above

Regarding `N#Cc1ccnc(N(Cc2ccc(Br)cc2)CC2CCCCC2)n1`, the inhibition (in general, the change of the read-out against control, counted positive when it falls) came out at 73.2% in experiment [1] and 47.4% in experiment [2].

For the compound `Cc1ncc(CN(CC(C)(C)C)c2nccc(C#N)n2)s1`, the inhibition in experiment [1] was 93.7%; in experiment [2], 52.6%.

In the case of `CC(C)(C)CN(Cc1ccc(-c2ccccc2)cc1)c1nccc(C#N)n1`, the IC50 (usually the point on the concentration scale where inhibition reaches its midpoint) at Cathepsin B is > 500000 nM; at Cathepsin K, 235 nM; on Cathepsin S it was > 500000 nM. Also, the inhibition in experiment [1] came out at 83.3%; in experiment [2], 77.5%.

With `CC(C)(C)CN(Cc1ccc(Cl)cc1)c1nccc(C#N)n1`, the inhibition in experiment [1] is 88.3%; in experiment [2], 61.3%.

With `CC(C)(C)CN(Cc1ccc(Br)cn1)c1nccc(C#N)n1`, the inhibition in experiment [1] worked out at 32.2%.

In the case of `CC(C)(C)CN(Cc1ccccc1)c1nccc(C#N)n1`, the inhibition in experiment [1] was 82.7%; in experiment [2], -1.05%.

Take `CC(C)(C)CN(Cc1ccc2cccnc2c1)c1nccc(C#N)n1`: the inhibition in experiment [1] is 93.4%; in experiment [2], 48%.

On to `CC(C)(C)CN(Cc1cc(Br)cs1)c1nccc(C#N)n1`, for which the inhibition in experiment [1] was 75.8%; in experiment [2], 43.9%.

`CC(C)(C)CN(Cc1ccc2ccccc2c1)c1nccc(C#N)n1`: the IC50 at Cathepsin B is > 500000 nM; on Cathepsin K, 356 nM; on Cathepsin S, > 500000 nM. The inhibition is 89.7% in experiment [1] and 86.5% in experiment [2].

Take `CC(C)(C)CN(Cc1ccc(F)cc1)c1nccc(C#N)n1`: the inhibition in experiment [1] was found to be 90.6%; in experiment [2], 56.2%.

As to `CC(C)(C)CN(Cc1cccc(-c2ccccc2)c1)c1nccc(C#N)n1`, the inhibition was 45.5% in experiment [1] and 33.6% in experiment [2].

Turning to `CC(C)(C)CN(Cc1ccc2ccccc2n1)c1nccc(C#N)n1`, the inhibition in experiment [1] turned out to be 87.4%; in experiment [2], 46.9%.

Consider `CC(C)(C)CN(Cc1ccc(Br)cc1)c1nccc(C#N)n1`, for which the IC50 on Cathepsin K was 974 nM. The inhibition was found to be 91.3% in experiment [1] and 79.8% in experiment [2].

For `CN1CCN(c2ccc(CN(CC(C)(C)C)c3nccc(C#N)n3)cc2)CC1`, the IC50 was > 100000 nM at Cathepsin B, 61.9 nM at Cathepsin K and > 50000 nM on Cathepsin S. In addition, the inhibition result in experiment [3] was “Active”. Further, the Ratio IC50 in experiment [4] was > 810; in experiment [5], > 1620. The inhibition in experiment [1] is 99.1%; in experiment [2], 96.7%.

For the compound `CC(C)(F)C[C@H](N[C@@H](c1ccc(-c2ccc(S(C)(=O)=O)cc2)cc1)C(F)(F)F)C(=O)NC1(C#N)CC1` [ODANACATIB], the IC50 at Cathepsin B is < 2000 nM; on Cathepsin K, 1.7 nM; on Cathepsin S, < 500 nM. Further, the Ratio IC50 in experiment [4] was < 300; in experiment [5], < 1180. For the same compound, the inhibition in experiment [1] was 100%; in experiment [2], 96.5%.

As to `N#Cc1ccnc(N(Cc2ccc(Br)cc2)C2CCCCC2)n1`, the inhibition is 42.8% in experiment [1] and 16.8% in experiment [2].

The values are drawn from ChEMBL document CHEMBL5214986, “Discovery of selective covalent cathepsin K inhibitors containing novel 4-cyanopyrimidine warhead based on quantum chemical calculations and binding mode analysis” (Bioorg Med Chem, 2022).
